Experimental data as given in PubChem BioAssay (NCI).
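48-hour exposure; five concentrations; linearly interpolated endpoints. TGI: concentration producing complete growth inhibition.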

Columns and labels:
Assay in all cases: NCI anticancer screen, dose series, 48 h
HCT-116 colon = test system: HCT-116 colon
SR leukemia = test system: SR leukemia
HCT-15 colon = test system: HCT-15 colon
T-47D breast = test system: T-47D breast
NCI-H522 lung = test system: NCI-H522 lung
KM12 colon = test system: KM12 colon
RPMI-8226 leukemia = test system: RPMI-8226 leukemia
NCI-H23 lung = test system: NCI-H23 lung
SF-268 CNS = test system: SF-268 CNS
U251 CNS = test system: U251 CNS
PC-3 prostate = test system: PC-3 prostate
SK-MEL-2 melanoma = test system: SK-MEL-2 melanoma
ACHN renal = test system: ACHN renal
HT29 colon = test system: HT29 colon
HL-60(TB) leukemia = test system: HL-60(TB) leukemia
DU-145 prostate = test system: DU-145 prostate
BT-549 breast = test system: BT-549 breast
NCI-H460 lung = test system: NCI-H460 lung
COLO 205 colon = test system: COLO 205 colon
NCI-H226 lung = test system: NCI-H226 lung
UACC-257 melanoma = test system: UACC-257 melanoma
MDA-N = test system: MDA-N
MDA-MB-435 = test system: MDA-MB-435
OVCAR-5 ovarian = test system: OVCAR-5 ovarian
K-562 leukemia = test system: K-562 leukemia
SNB-19 CNS = test system: SNB-19 CNS
SN12C renal = test system: SN12C renal
TK-10 renal = test system: TK-10 renal
SNB-75 CNS = test system: SNB-75 CNS
OVCAR-3 ovarian = test system: OVCAR-3 ovarian
IGROV1 ovarian = test system: IGROV1 ovarian
SF-295 CNS = test system: SF-295 CNS
OVCAR-8 ovarian = test system: OVCAR-8 ovarian
MCF7 breast = test system: MCF7 breast
SF-539 CNS = test system: SF-539 CNS
UO-31 renal = test system: UO-31 renal
HS 578T breast = test system: HS 578T breast
UACC-62 melanoma = test system: UACC-62 melanoma
SW-620 colon = test system: SW-620 colon
HOP-92 NSCLC = test system: HOP-92 NSCLC
MALME-3M melanoma = test system: MALME-3M melanoma
MDA-MB-231 breast = test system: MDA-MB-231 breast
CCRF-CEM leukemia = test system: CCRF-CEM leukemia
A498 renal = test system: A498 renal
786-0 renal = test system: 786-0 renal
EKVX NSCLC = test system: EKVX NSCLC
A549 NSCLC = test system: A549 NSCLC
OVCAR-4 ovarian = test system: OVCAR-4 ovarian
RXF 393 renal = test system: RXF 393 renal
SK-OV-3 ovarian = test system: SK-OV-3 ovarian
M14 melanoma = test system: M14 melanoma
SK-MEL-28 melanoma = test system: SK-MEL-28 melanoma
NCI/ADR-RES ovarian = test system: NCI/ADR-RES ovarian
HCC-2998 colon = test system: HCC-2998 colon
SK-MEL-5 melanoma = test system: SK-MEL-5 melanoma
HOP-62 NSCLC = test system: HOP-62 NSCLC
LOX IMVI melanoma = test system: LOX IMVI melanoma
CAKI-1 renal = test system: CAKI-1 renal
MOLT-4 leukemia = test system: MOLT-4 leukemia

Measured: TGI

O=C1N[C@@H](c2c[nH]c3cc(Br)ccc23)C(=O)N[C@H]1c1c[nH]c2cc(Br)ccc12
80.2 µM: MDA-MB-231 breast
60.1 µM: U251 CNS
90.1 µM: SNB-75 CNS
not listed: CAKI-1 renal | MOLT-4 leukemia
> 100 µM: all other assays above

c1ccc2c(c1)nc1n2CNC1
not listed: NCI-H522 lung | NCI-H226 lung | OVCAR-8 ovarian | MALME-3M melanoma
> 100 µM: all other assays above
